Data taken from the CheMixHub drug solubility set.

Test: xn = mol fraction of the nth substance listed, in the solute-free solvent

CC(=O)OC(c1ccccc1)C(Cl)(Cl)Cl (centres undefined) + CC(=O)O + O
solubility (g/100 g solution) (288.15 K, x2 = 0.4): 0.229 | solubility (g/100 g solution) (288.15 K, x2 = 0.5): 0.758 | solubility (g/100 g solution) (288.15 K, x2 = 0.6): 1.45 | solubility (g/100 g solution) (288.15 K, x2 = 0.7): 2.88 | solubility (g/100 g solution) (288.15 K, x2 = 0.8): 4.78 | solubility (g/100 g solution) (288.15 K, x2 = 0.9): 7.43 | solubility (g/100 g solution) (293.15 K, x2 = 0.4): 0.34 | solubility (g/100 g solution) (293.15 K, x2 = 0.5): 0.967 | solubility (g/100 g solution) (293.15 K, x2 = 0.6): 2.06 | solubility (g/100 g solution) (293.15 K, x2 = 0.7): 3.73 | solubility (g/100 g solution) (293.15 K, x2 = 0.8): 6.15 | solubility (g/100 g solution) (293.15 K, x2 = 0.9): 9.03 | solubility (g/100 g solution) (298.15 K, x2 = 0.4): 0.495 | solubility (g/100 g solution) (298.15 K, x2 = 0.5): 1.23 | solubility (g/100 g solution) (298.15 K, x2 = 0.6): 2.67 | solubility (g/100 g solution) (298.15 K, x2 = 0.7): 4.74 | solubility (g/100 g solution) (298.15 K, x2 = 0.8): 7.58 | solubility (g/100 g solution) (298.15 K, x2 = 0.9): 10.9 | solubility (g/100 g solution) (303.15 K, x2 = 0.4): 0.65 | solubility (g/100 g solution) (303.15 K, x2 = 0.5): 1.62 | solubility (g/100 g solution) (303.15 K, x2 = 0.6): 3.47 | solubility (g/100 g solution) (303.15 K, x2 = 0.7): 6.03 | solubility (g/100 g solution) (303.15 K, x2 = 0.8): 9.47 | solubility (g/100 g solution) (303.15 K, x2 = 0.9): 13.5 | solubility (g/100 g solution) (308.15 K, x2 = 0.4): 0.966 | solubility (g/100 g solution) (308.15 K, x2 = 0.5): 2.27 | solubility (g/100 g solution) (308.15 K, x2 = 0.6): 4.47 | solubility (g/100 g solution) (308.15 K, x2 = 0.7): 7.75 | solubility (g/100 g solution) (308.15 K, x2 = 0.8): 12 | solubility (g/100 g solution) (308.15 K, x2 = 0.9): 17 | solubility (g/100 g solution) (313.15 K, x2 = 0.4): 1.43 | solubility (g/100 g solution) (313.15 K, x2 = 0.5): 2.97 | solubility (g/100 g solution) (313.15 K, x2 = 0.6): 5.57 | solubility (g/100 g solution) (313.15 K, x2 = 0.7): 9.86 | solubility (g/100 g solution) (313.15 K, x2 = 0.8): 15.1 | solubility (g/100 g solution) (313.15 K, x2 = 0.9): 21.2 | solubility (g/100 g solution) (318.15 K, x2 = 0.4): 1.81 | solubility (g/100 g solution) (318.15 K, x2 = 0.5): 3.85 | solubility (g/100 g solution) (318.15 K, x2 = 0.6): 7.52 | solubility (g/100 g solution) (318.15 K, x2 = 0.7): 12.5 | solubility (g/100 g solution) (318.15 K, x2 = 0.8): 19.5 | solubility (g/100 g solution) (318.15 K, x2 = 0.9): 26.5 | solubility (g/100 g solution) (323.15 K, x2 = 0.4): 2.64 | solubility (g/100 g solution) (323.15 K, x2 = 0.5): 5.28 | solubility (g/100 g solution) (323.15 K, x2 = 0.6): 10.1 | solubility (g/100 g solution) (323.15 K, x2 = 0.7): 16.9 | solubility (g/100 g solution) (323.15 K, x2 = 0.8): 25.6 | solubility (g/100 g solution) (323.15 K, x2 = 0.9): 33.8 | solubility (g/100 g solution) (328.15 K, x2 = 0.4): 3.12 | solubility (g/100 g solution) (328.15 K, x2 = 0.5): 7.16 | solubility (g/100 g solution) (328.15 K, x2 = 0.6): 13.4 | solubility (g/100 g solution) (328.15 K, x2 = 0.7): 23.4 | solubility (g/100 g solution) (328.15 K, x2 = 0.8): 33.9 | solubility (g/100 g solution) (328.15 K, x2 = 0.9): 42.7

CCCCOc1ccc(C(=O)CCN2CCCCC2)cc1.Cl + CCO + O
solubility (g/100 g solution) (278.15 K, x2 = 0.1): 34.6 | solubility (g/100 g solution) (278.15 K, x2 = 0.2): 33.9 | solubility (g/100 g solution) (278.15 K, x2 = 0.3): 33.4 | solubility (g/100 g solution) (278.15 K, x2 = 0.4): 33.1 | solubility (g/100 g solution) (278.15 K, x2 = 0.5): 32.7 | solubility (g/100 g solution) (278.15 K, x2 = 0.6): 32.5 | solubility (g/100 g solution) (278.15 K, x2 = 0.7): 32.2 | solubility (g/100 g solution) (278.15 K, x2 = 0.8): 32 | solubility (g/100 g solution) (278.15 K, x2 = 0.9): 31.9 | solubility (g/100 g solution) (283.15 K, x2 = 0.1): 37.9 | solubility (g/100 g solution) (283.15 K, x2 = 0.2): 37.1 | solubility (g/100 g solution) (283.15 K, x2 = 0.3): 36.5 | solubility (g/100 g solution) (283.15 K, x2 = 0.4): 36.1 | solubility (g/100 g solution) (283.15 K, x2 = 0.5): 35.7 | solubility (g/100 g solution) (283.15 K, x2 = 0.6): 35.4 | solubility (g/100 g solution) (283.15 K, x2 = 0.7): 35.1 | solubility (g/100 g solution) (283.15 K, x2 = 0.8): 35 | solubility (g/100 g solution) (283.15 K, x2 = 0.9): 34.8 | solubility (g/100 g solution) (288.15 K, x2 = 0.1): 41.1 | solubility (g/100 g solution) (288.15 K, x2 = 0.2): 40.3 | solubility (g/100 g solution) (288.15 K, x2 = 0.3): 39.6 | solubility (g/100 g solution) (288.15 K, x2 = 0.4): 39.2 | solubility (g/100 g solution) (288.15 K, x2 = 0.5): 38.8 | solubility (g/100 g solution) (288.15 K, x2 = 0.6): 38.4 | solubility (g/100 g solution) (288.15 K, x2 = 0.7): 38.1 | solubility (g/100 g solution) (288.15 K, x2 = 0.8): 37.9 | solubility (g/100 g solution) (288.15 K, x2 = 0.9): 37.8 | solubility (g/100 g solution) (293.15 K, x2 = 0.1): 44.6 | solubility (g/100 g solution) (293.15 K, x2 = 0.2): 43.8 | solubility (g/100 g solution) (293.15 K, x2 = 0.3): 43 | solubility (g/100 g solution) (293.15 K, x2 = 0.4): 42.4 | solubility (g/100 g solution) (293.15 K, x2 = 0.5): 42 | solubility (g/100 g solution) (293.15 K, x2 = 0.6): 41.5 | solubility (g/100 g solution) (293.15 K, x2 = 0.7): 41.2 | solubility (g/100 g solution) (293.15 K, x2 = 0.8): 41 | solubility (g/100 g solution) (293.15 K, x2 = 0.9): 40.7 | solubility (g/100 g solution) (298.15 K, x2 = 0.1): 48.1 | solubility (g/100 g solution) (298.15 K, x2 = 0.2): 47.1 | solubility (g/100 g solution) (298.15 K, x2 = 0.3): 46.3 | solubility (g/100 g solution) (298.15 K, x2 = 0.4): 45.7 | solubility (g/100 g solution) (298.15 K, x2 = 0.5): 45.1 | solubility (g/100 g solution) (298.15 K, x2 = 0.6): 44.7 | solubility (g/100 g solution) (298.15 K, x2 = 0.7): 44.4 | solubility (g/100 g solution) (298.15 K, x2 = 0.8): 44.1 | solubility (g/100 g solution) (298.15 K, x2 = 0.9): 43.8 | solubility (g/100 g solution) (303.15 K, x2 = 0.1): 51.6 | solubility (g/100 g solution) (303.15 K, x2 = 0.2): 50.6 | solubility (g/100 g solution) (303.15 K, x2 = 0.3): 49.8 | solubility (g/100 g solution) (303.15 K, x2 = 0.4): 49 | solubility (g/100 g solution) (303.15 K, x2 = 0.5): 48.5 | solubility (g/100 g solution) (303.15 K, x2 = 0.6): 48 | solubility (g/100 g solution) (303.15 K, x2 = 0.7): 47.6 | solubility (g/100 g solution) (303.15 K, x2 = 0.8): 47.2 | solubility (g/100 g solution) (303.15 K, x2 = 0.9): 47 | solubility (g/100 g solution) (308.15 K, x2 = 0.1): 55.2 | solubility (g/100 g solution) (308.15 K, x2 = 0.2): 54.1 | solubility (g/100 g solution) (308.15 K, x2 = 0.3): 53.2 | solubility (g/100 g solution) (308.15 K, x2 = 0.4): 52.4 | solubility (g/100 g solution) (308.15 K, x2 = 0.5): 51.8 | solubility (g/100 g solution) (308.15 K, x2 = 0.6): 51.3 | solubility (g/100 g solution) (308.15 K, x2 = 0.7): 50.9 | solubility (g/100 g solution) (308.15 K, x2 = 0.8): 50.5 | solubility (g/100 g solution) (308.15 K, x2 = 0.9): 50.3 | solubility (g/100 g solution) (313.15 K, x2 = 0.1): 58.8 | solubility (g/100 g solution) (313.15 K, x2 = 0.2): 57.7 | solubility (g/100 g solution) (313.15 K, x2 = 0.3): 56.7 | solubility (g/100 g solution) (313.15 K, x2 = 0.4): 55.9 | solubility (g/100 g solution) (313.15 K, x2 = 0.5): 55.3 | solubility (g/100 g solution) (313.15 K, x2 = 0.6): 54.7 | solubility (g/100 g solution) (313.15 K, x2 = 0.7): 54.3 | solubility (g/100 g solution) (313.15 K, x2 = 0.8): 53.9 | solubility (g/100 g solution) (313.15 K, x2 = 0.9): 53.6 | solubility (g/100 g solution) (318.15 K, x2 = 0.1): 62.2 | solubility (g/100 g solution) (318.15 K, x2 = 0.2): 61.1 | solubility (g/100 g solution) (318.15 K, x2 = 0.3): 60.1 | solubility (g/100 g solution) (318.15 K, x2 = 0.4): 59.4 | solubility (g/100 g solution) (318.15 K, x2 = 0.5): 58.7 | solubility (g/100 g solution) (318.15 K, x2 = 0.6): 58.2 | solubility (g/100 g solution) (318.15 K, x2 = 0.7): 57.8 | solubility (g/100 g solution) (318.15 K, x2 = 0.8): 57.3 | solubility (g/100 g solution) (318.15 K, x2 = 0.9): 57 | solubility (g/100 g solution) (323.15 K, x2 = 0.1): 65.7 | solubility (g/100 g solution) (323.15 K, x2 = 0.2): 64.5 | solubility (g/100 g solution) (323.15 K, x2 = 0.3): 63.5 | solubility (g/100 g solution) (323.15 K, x2 = 0.4): 62.7 | solubility (g/100 g solution) (323.15 K, x2 = 0.5): 62 | solubility (g/100 g solution) (323.15 K, x2 = 0.6): 61.5 | solubility (g/100 g solution) (323.15 K, x2 = 0.7): 61 | solubility (g/100 g solution) (323.15 K, x2 = 0.8): 60.6 | solubility (g/100 g solution) (323.15 K, x2 = 0.9): 60.2
